Reference: patent publication US4006237A, “Tetrahydrocarbostyril derivatives for the prophylaxis of asthma, hayfever and rhinitis” (Beecham Group Limited, priority 1973, dated 1977)

Tested on: rat PCA response
Experiment: Rat Passive Cutaneous Anaphylaxis (PCA) test
Type: in vivo, rat (male Wistar serum donors; Wistar test rats)
Protocol: Some of the substituted 4-hydroxy-3-nitro-α-pyridones prepared in the previous examples were submitted for biological testing. The test system was the Rat Passive Cutaneous Anaphylaxis (PCA) test described below in (ii).
i. Serum containing heat labile homocytotropic antibody was raised in rats by a method similar to that used by Mota. (I. Mota Immunology 1964, 7, 681).
Male Wistar rats of 250- 300g, were injected intraperitoneally with 0.5ml of Bordatella pertussis vaccine (containing 4 × 10^10 dead organism per ml) and subcutaneously with 0.5ml of an emulsion of 100mg of ovalbumin in 2ml of saline and 3ml of incomplete Freunds' adjuvant. Rats were bled by cardiac puncture on day 18, the blood was pooled and separated and serum stored at -20° C and thawed only once before use.
ii. The P.C.A. test was similar to that described by Ovary and Bier (A. Ovary and O. E. Bier, Proc. Soc. Exp. Biol.Med.1952, 81, 584) and Goose and Blair (J. Goose and A. M. J. N. Blair, Immunology 1969, 16, 769).
0.1ml. of each six twofold serial dilutions of the serum in 0.9% saline were injected intradermally into separate sites on the shaved dorsal surface of 250-350 g Wistar rats. 72 hours later the animals were challenged by i.v. injection of 0.3ml of 1% ovalbumin mixed with 0.1ml of a 5% solution of pontamine sky blue dye both in isotonic saline buffered with pH 7.2 Sorenson buffer (P.B.S.). The rats were killed after 20 minutes and the diameter of the blue wheals at the antibody injection sites were measured. The starting dilution of the serum was adjusted so that there was no response, after challenge, at the site of injection of the highest dilution and a maximum response at the lowest dilution. Typically, six twofold serial dilutions of the serum from 1/4 to 1/128 were used.
Compounds were tested for their ability to reduce the diameter of the wheals at the injection sites of dilutions of antibody which on all the controls have less than maximum response. Amounts of the compounds were administered to rats each amount to a test group of six animals at a specified time prior to intravenous challenge with ovalbumin. The diameters of the blue wheals which developed on the test group of animals were compared with those on a control group of six animals treated in the same way as the test group, but which had not received the compound under test.
% Inhibition of P.C.A. = 100 (1 - (a/b))
a = The mean of the sum of the diameters of the wheels produced in the test group of animals at those antibody sites where all the control group of animals gave less than maximum response.
b = The mean of the sum of diameters of the wheals produced in the control group of animals at those antibody sites where all the animals in the group gave less than the maximum response.
The compounds were administered either as a solution of the free nitro compound or as a solution or suspension in 1% methyl cellulose of the sodium salt.

[1] = time 30 mins prior to challenge
[2] = time 60 mins prior to challenge
[3] = time 10 mins prior to challenge

| Compound | inhibition in vivo at 25 mg/kg (time 0 mins prior to challenge) [%] | inhibition in vivo at 25 mg/kg [1] [%] | inhibition in vivo at 100 mg/kg (time 0 mins prior to challenge) [%] | inhibition in vivo at 100 mg/kg [1] [%] | inhibition in vivo at 25 mg/kg [2] [%] | inhibition in vivo at 100 mg/kg [2] [%] | inhibition in vivo at 25 mg/kg [3] [%] | inhibition in vivo at 100 mg/kg [3] [%] |
| --- | --- | --- | --- | --- | --- | --- | --- | --- |
| CCn1c2c(c(O)c([N+](=O)[O-])c1=O)CCCC2 [Example 8, 1-Ethyl-4-hydroxy-3-nitro-5,6,7,8-tetrahydrocarbostyril] | -5 | 14 | 12 | 75 | – | – | – | – |
| CCCn1c2c(c(O)c([N+](=O)[O-])c1=O)CCCC2 [Example 9, 4-Hydroxy-3-nitro-1-n-propyl-5,6,7,8-tetrahydrocarbostyril] | 51 | 25 | 18 | 69 | – | – | – | – |
| CCn1c2c(c(O)c([N+](=O)[O-])c1=O)CCC(C)C2 (centres unmarked) [Example 11, 1-Ethyl-4-hydroxy-7-methyl-3-nitro-5,6,7,8-tetrahydrocarbostyril] | 8 | 38 | 31 | 57 | – | – | – | – |
| CC1Cc2[nH]c(=O)c([N+](=O)[O-])c(O)c2C(C)C1 (centres unmarked) [Example 5, 5,7-dimethyl-4-hydroxy-3-nitro-5,6,7,8-tetrahydrocarbostyril] | 27 | 14 | 72 | 42 | – | – | – | – |
| CC(C)n1c2c(c(O)c([N+](=O)[O-])c1=O)CCCC2 [Example 10, 4-Hydroxy-1-isopropyl-3-nitro-5,6,7,8-tetrahydrocarbostyril] | 5 | 0 | 8 | 16 | – | – | – | – |
| O=c1[nH]c2c(c(O)c1[N+](=O)[O-])CCCCC2 [Example 4, 5,6-cycloheptenyl-4-hydroxy-3-nitro-α-pyridone] | -10 | – | -3 | – | 1 | 27 | – | – |
| CC1CCc2[nH]c(=O)c([N+](=O)[O-])c(O)c2C1 (centres unmarked) [Example 6, 4-Hydroxy-6-methyl-3-nitro-5,6,7,8-tetrahydrocarbostyril] | 1 | – | 24 | – | 15 | 37 | – | – |
| O=c1[nH]c2c(c(O)c1[N+](=O)[O-])CCCCCC2 [Example 7, 5,6-cyclooctenyl-4-hydroxy-3-nitro-α-pyridone] | – | 15 | – | 37 | – | – | 17 | 59 |
| CC1CCc2c([nH]c(=O)c([N+](=O)[O-])c2O)C1 (centres unmarked) [Example 2, 4-Hydroxy-7-methyl-3-nitro-5,6,7,8-tetrahydrocarbostyril] | 36 | 49 | 76 | 40 | – | – | – | – |
| O=c1[nH]c2c(c(O)c1[N+](=O)[O-])CCC2 [Example 3, 5,6-Cyclopenteno-4-hydroxy-3-nitro-α-pyridone] | 10 | -20 | 28 | 6 | – | – | – | – |
| O=c1[nH]c2c(c(O)c1[N+](=O)[O-])CCCC2 [Example 1, 4-Hydroxy-3-nitro-5,6,7,8-tetrahydrocarbostyril] | 16 | 15 | 70 | 20 | – | – | – | – |
